Source: US12545685B2 (Daiichi Sankyo Company, Limited, priority 2011, dated 2026)

Target: T1, Mdm2/p53 binding (GST-Mdm2 / His-p53) (Homo sapiens, UniProt Q00987, L33E)
T1 construct: Mdm2 partial protein having Mdm2 amino acids at positions 25 to 108
Assay: Mdm2/p53 binding assay (HTRF, His-p53 and GST-Mdm2)
Conditions: His-p53 (aa 1-132) and GST-Mdm2 (aa 25-108, L33E) 6.25 nM each; 25°C, 1 hour; values given as ranges
How it was run: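 His-p53 (aa 1–132) and GST-Mdm2 (aa 25–108, L33E) were prepared at 6.25 nM each in the protein dilution (20 mM HEPES pH 7.4, 150 mM NaCl, 0.1% BSA). Compound in 10% DMSO buffer and XL665 anti-His/Eu anti-GST antibodies (KF buffer) were added, with 1 h at 25 °C. The 665/620 nm TR-FRET ratio gave T/C and a sigmoid-fitted IC50.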

T1 sequence (Q00987 25-108 L33E): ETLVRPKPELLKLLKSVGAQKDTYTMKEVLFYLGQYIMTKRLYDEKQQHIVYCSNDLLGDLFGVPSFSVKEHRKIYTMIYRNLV

Row | Structure (SMILES) | IC50 [nM]
1 | CO[C@]1(CO)CC[C@H](NC(=O)[C@@H]2NC3(CCC(C)(C)CC3)[C@@]3(C(=O)Nc4cc(Cl)ccc43)[C@H]2c2cccc(Cl)c2F)CC1 [Example 73, (3′R, 4′S,5′R)-6″-chloro-4′-(3-chloro-2-fluorophenyl)-N-[cis-4-(hydroxymethyl)-4-methoxycyclohexyl]-4,4-dimethyl-2″-oxo-1″,2″-dihydrodispiro[cyclohexane-1,2′-pyrrolidine-3′,3″-indole]-5′-carboxamide] | 50 to 100
2 | CO[C@]1(CO)CC[C@@H](NC(=O)[C@@H]2NC3(CCC(C)(C)CC3)[C@@]3(C(=O)Nc4cc(Cl)ccc43)[C@H]2c2cccc(Cl)c2F)CC1 [Example 74, (3′R, 4′S,5′R)-6″-chloro-4′-(3-chloro-2-fluorophenyl)-N-[trans-4-(hydroxymethyl)-4-methoxycyclohexyl]-4,4-dimethyl-2″-oxo-1″,2″-dihydrodispiro[cyclohexane-1,2′-pyrrolidine-3′,3″-indole]-5′-carboxamide] | 50 to 100
3 | CC1(C)CC2(C1)N[C@@H](C(=O)N[C@@H]1CC[C@@H](CO)OC1)[C@H](c1cccc(Cl)c1F)[C@]21C(=O)Nc2nc(Cl)ccc21 [Example 79, (3′R, 4′S,5′R)-6″-chloro-4′-(3-chloro-2-fluorophenyl)-N-[(3R,6S)-6-(hydroxymethyl)tetrahydro-2H-pyran-3-yl]-3,3-dimethyl-2″-oxo-1″,2″-dihydrodispiro[cyclobutane-1,2′-pyrrolidine-3′,3″-pyrrolo[2,3-b]pyridine]-5′-carboxamide] | 50 to 100
4 | COC[C@]1(O)CC[C@@H](NC(=O)[C@@H]2NC3(CCC(C)(C)CC3)[C@@]3(C(=O)Nc4nc(Cl)ccc43)[C@H]2c2ccnc(Cl)c2F)CC1 [Example 80, (3′R, 4′S,5′R)-6″-chloro-4′-(2-chloro-3-fluoropyridin-4-yl)-N-[cis-4-hydroxy-4-(methoxymethyl)cyclohexyl]-4,4-dimethyl-2″-oxo-1″,2″-dihydrodispiro[cyclohexane-1,2′-pyrrolidine-3′,3″-pyrrol[2,3-b]pyridine]-5′-carboxamide] | 50 to 100
5 | O=C(N[C@@H]1CC[C@@H](CO)OC1)[C@@H]1NC2(CC(CF)(CF)C2)[C@@]2(C(=O)Nc3nc(Cl)ccc32)[C@H]1c1cccc(Cl)c1F [Example 84, (3′R, 4′S,5′R)-6″-chloro-4′-(3-chloro-2-fluorophenyl)-3,3-bis(fluoromethyl)-N-[(3R,6S)-6-(hydroxymethyl)tetrahydro-2H-pyran-3-yl]-2″-oxo-1″,2″-dihydrodispiro[cyclobutane-1,2′-pyrrolidine-3′,3″-pyrrolo[2,3-b]pyridine]-5′-carboxamide] | 50 to 100
6 | O=C(N[C@@H]1CC[C@@H](CO)OC1)[C@@H]1NC2(CC(CF)(CF)C2)[C@@]2(C(=O)Nc3cc(Cl)ccc32)[C@H]1c1ccnc(Cl)c1F [Example 91, (3′R, 4′S,5′R)-6″-chloro-4′-(2-chloro-3-fluoropyridin-4-yl)-3,3-bis(fluoromethyl)-N-[(3R,6S)-6-(hydroxymethyl)tetrahydro-2H-pyran-3-yl]-2″-oxo-1″,2″-dihydrodispiro[cyclobutane-1,2′-pyrrolidine-3′,3″-indole]-5′-carboxamide] | 50 to 100
7 | O=C(N[C@H]1CC[C@H](c2nnco2)CC1)[C@@H]1NC2(CC(CF)(CF)C2)[C@@]2(C(=O)Nc3cc(Cl)ccc32)[C@H]1c1ccnc(Cl)c1F [Example 95, (3′R, 4′S,5′R)-6″-chloro-4′-(2-chloro-3-fluoropyridin-4-yl)-3,3-bis(fluoromethyl)-N-[trans-4-(1,3,4-oxadiazol-2-yl)cyclohexyl]-2″-oxo-1″,2′-dihydrodispiro[cyclobutane-1,2′-pyrrolidine-3′,3″-indole]-5′-carboxamide] | 50 to 100
8 | CC1(C)CCC2(CC1)N[C@@H](C(=O)N[C@@H]1CC[C@@H](CS(C)(=O)=O)OC1)[C@H](c1ccnc(Cl)c1F)[C@]21C(=O)Nc2cc(Cl)ccc21 [Example 98, (3′R, 4′S,5′R)-6″-chloro-4′-(2-chloro-3-fluoropyridin-4-yl)-4,4-dimethyl-N-{(3R,6S)-6-[(methylsulfonyl)methyl]tetrahydro-2H-pyran-3-yl}-2″-oxo-1″,2″-dihydrodispiro[cyclohexane-1,2′-pyrrolidine-3′,3″-indole]-5′-carboxamide] | 50 to 100
9 | CC1(C)CCC2(CC1)N[C@@H](C(=O)N[C@@H]1CC[C@@H](C(=O)NC3CC3)OC1)[C@H](c1ccnc(Cl)c1F)[C@]21C(=O)Nc2nc(Cl)ccc21 [Example 102, (3′R, 4′S,5′R)-6″-chloro-4′-(2-chloro-3-fluoropyridin-4-yl)-N-[(3R,6S)-6-(cyclopropylcarbamoyl)tetrahydro-2H-pyran-3-yl]-4,4-dimethyl-2″-oxo-1″,2″-dihydrodispiro[cyclohexane-1,2′-pyrrolidine-3′,3″-pyrrolo[2,3-b]pyridine]-5′-carboxamide] | 1 to 50
10 | CC1(C)CCC2(CC1)N[C@@H](C(=O)N[C@@H]1CC[C@@H](C(=O)NCCO)OC1)[C@H](c1ccnc(Cl)c1F)[C@]21C(=O)Nc2cc(Cl)ccc21 [Example 103, (3′R, 4′S,5′R)-6″-chloro-4′-(2-chloro-3-fluoropyridin-4-yl)-N-{(3R,6S)-6-[(2-hydroxyethyl)carbamoyl]tetrahydro-2H-pyran-3-yl}-4,4-dimethyl-2″-oxo-1″,2″-dihydrodispiro[cyclohexane-1,2′-pyrrolidine-3′,3″-indole]-5′-carboxamide] | 1 to 50
11 | CN(C)C(=O)[C@@H]1CC[C@@H](NC(=O)[C@@H]2NC3(CCC(C)(C)CC3)[C@@]3(C(=O)Nc4nc(Cl)ccc43)[C@H]2c2ccnc(Cl)c2F)CO1 [Example 104, (3′R, 4′S,5′R)-6″-chloro-4′-(2-chloro-3-fluoropyridin-4-yl)-N-[(3R,6S)-6-(dimethylcarbamoyl)tetrahydro-2H-pyran-3-yl]-4,4-dimethyl-2″-oxo-1″,2″-dihydrodispiro[cyclohexane-1,2′-pyrrolidine-3′,3″-pyrrolo[2,3-b]pyridine]-5′-carboxamide] | 1 to 50
12 | C[C@H]1O[C@H](CO)CC[C@H]1NC(=O)[C@@H]1NC2(CCC(C)(C)CC2)[C@@]2(C(=O)Nc3cc(Cl)ccc32)[C@H]1c1ccnc(Cl)c1F [Example 105, (3′R, 4′S,5′R)-6″-chloro-4′-(2-chloro-3-fluoropyridin-4-yl)-N-[(2R,3R,6S)-6-(hydroxymethyl)-2-methyltetrahydro-2H-pyran-3-yl]-4,4-dimethyl-2″-oxo-1″,2″-dihydrodispiro[cyclohexane-1,2′-pyrrolidine-3′,3″-indole]-5′-carboxamide] | 1 to 50

Next, values leading:

Row | IC50 [nM] | Structure (SMILES)
13 | 1 to 50 | CO[C@]1(CO)CC[C@@H](NC(=O)[C@@H]2NC3(CCC(C)(C)CC3)[C@@]3(C(=O)Nc4nc(Cl)ccc43)[C@H]2c2cccc(Cl)c2F)CC1 [Example 81, (3′R, 4′S,5′R)-6″-chloro-4′-(3-chloro-2-fluorophenyl)-N-[trans-4-(hydroxymethyl)-4-methoxycyclohexyl]-4,4-dimethyl-2″-oxo-1″,2″-dihydrodispiro[cyclohexane-1,2′-pyrrolidine-3′,3″-pyrrolo[2,3-b]pyridine]-5′-carboxamide]
14 | 1 to 50 | CO[C@]1(CO)CC[C@@H](NC(=O)[C@@H]2NC3(CCC(C)(C)CC3)[C@@]3(C(=O)Nc4nc(Cl)ccc43)[C@H]2c2ccnc(Cl)c2F)CC1 [Example 82, (3′R, 4′S,5′R)-6″-chloro-4′-(2-chloro-3-fluoropyridin-4-yl)-N-[trans-4-(hydroxymethyl)-4-methoxycyclohexyl]-4,4-dimethyl-2″-oxo-1″,2′-dihydrodispiro[cyclohexane-1,2′-pyrrolidine-3′,3″-pyrrolo[2,3-b]pyridine]-5′-carboxamide]
15 | 1 to 50 | CO[C@]1(CO)CC[C@H](NC(=O)[C@@H]2NC3(CCC(C)(C)CC3)[C@@]3(C(=O)Nc4nc(Cl)ccc43)[C@H]2c2ccnc(Cl)c2F)CC1 [Example 83, (3′R, 4′S,5′R)-6″-chloro-4′-(2-chloro-3-fluoropyridin-4-yl)-N-[cis-4-(hydroxymethyl)-4-methoxycyclohexyl]-4,4-dimethyl-2″-oxo-1″,2″-dihydrodispiro[cyclohexane-1,2′-pyrrolidine-3′,3″-pyrrolo[2,3-b]pyridine]-5′-carboxamide]
16 | 1 to 50 | CC1(C)CCC2(CC1)N[C@@H](C(=O)N[C@H]1CC[C@](O)(CS(C)(=O)=O)CC1)[C@H](c1ccnc(Cl)c1F)[C@]21C(=O)Nc2cc(Cl)ccc21 [Example 87, (3′R, 4′S,5′R)-6″-chloro-4′-(2-chloro-3-fluoropyridin-4-yl)-N-{cis-4-hydroxy-4-[(methylsulfonyl)methyl]cyclohexyl}-4,4-dimethyl-2″-oxo-1″,2′-dihydrodispiro[cyclohexane-1,2′-pyrrolidine-3′,3″-indole]-5′-carboxamide]
17 | 1 to 50 | CC1(C)CCC2(CC1)N[C@@H](C(=O)N[C@@H]1CC[C@@H](CO)OC1)[C@H](c1cncc(Cl)c1)[C@]21C(=O)Nc2cc(Cl)ccc21 [Example 92, (3′R, 4′R, 5′R)-6″-chloro-4′-(5-chloropyridin-3-yl)-N-[(3R,6S)-6-(hydroxymethyl)tetrahydro-2H-pyran-3-yl]-4,4-dimethyl-2″-oxo-1″,2″-dihydrodispiro[cyclohexane-1,2′-pyrrolidine-3′,3″-indole]-5′-carboxamide]
18 | 1 to 50 | CNC(=O)[C@@H]1CC[C@@H](NC(=O)[C@@H]2NC3(CCC(C)(C)CC3)[C@@]3(C(=O)Nc4nc(Cl)ccc43)[C@H]2c2ccnc(Cl)c2F)CO1 [Example 101, (3′R, 4′S,5′R)-6″-chloro-4′-(2-chloro-3-fluoropyridin-4-yl)-4,4-dimethyl-N-[(3R,6S)-6-(methylcarbamoyl)tetrahydro-2H-pyran-3-yl]-2″-oxo-1″,2″-dihydrodispiro[cyclohexane-1,2′-pyrrolidine-3′,3″-pyrrolo[2,3-b]pyridine]-5′-carboxamide]
